# Results reported in a compilation of properties of binary mixtures (doi:10.1021/je100113r).
# Experiment: xn = mol fraction of the nth substance listed
# Conditions: 300 K, 101 kPa
electrical conductivity (x2 = 0.198),electrical conductivity (x2 = 0.498),electrical conductivity (x2 = 0.598),electrical conductivity (x2 = 0.503),electrical conductivity (x2 = 0.603),electrical conductivity (x2 = 0.201),electrical conductivity (x2 = 0.302),electrical conductivity (x2 = 0.502),electrical conductivity (x2 = 0.802),SMILES
0.0003 S/m,0.0003 S/m,0.0004 S/m,,,,,,,CCCCCCCCCCCCCCCC[P+](c1ccccc1)(c1ccccc1)c1ccccc1.[Br-] + O
,,,0.002 S/m,0.0006 S/m,,,,,[Br-].[PH3+]CCCCCCCCCCCCCC(c1ccccc1)(c1ccccc1)c1ccccc1 + O
,,,,0.0004 S/m,0.0004 S/m,0.0004 S/m,0.0004 S/m,0.0004 S/m,CCCCCCCCCCCCCCCC[P+](CCCC)(CCCC)CCCC.[Br-] + O
